In ChEMBL document CHEMBL3885861, “Open TG-GATES”:

Species on record: Rattus norvegicus
Assay: Open TG-GATES - Regimen: Single
Type: toxicity, organism-based, Sprague-Dawley
Set-up: regimen Single, gender Male, age 6 weeks
Conditions: in vivo, po, route gavage; for APTT / Bas / Eos / Fbg / Hb / Ht / Lym / MCH / MCHC / MCV / Mono / Neu / PT / Plat / RBC / Ret / WBC: tissue Blood; for KIDNEY_L / KIDNEY_R / KIDNEY_TOTAL: tissue Kidney; for LIVER: tissue Liver; for A/G / ALP / ALT / AST / BUN / CRE / Ca / Cl / DBIL / GLC / IP / K / LDH / Na / PL / RALB / TBIL / TC / TG / TP / gamma-GTP: tissue Plasma
[1] = 300 mg/kg, 3 h, dose level Middle
[2] = 300 mg/kg, 6 h, dose level Middle
[3] = 300 mg/kg, 9 h, dose level Middle
[4] = 300 mg/kg, 24 h, dose level Middle
[5] = 1000 mg/kg, 3 h, dose level High
[6] = 1000 mg/kg, 6 h, dose level High
[7] = 1000 mg/kg, 9 h, dose level High
[8] = 1000 mg/kg, 24 h, dose level High

O=C(O)COc1nn(Cc2ccccc2)c2ccccc12 [BENDAZAC]
TERMINAL_BW [1]: 210.1 g
APTT [1]: 17.4 s
Bas [1]: 0%
Eos [1]: 1%
Fbg [1]: 206.8 mg/dL
Hb [1]: 13.9 g/dL
Ht [1]: 41.6%
Lym [1]: 80.4%
MCH [1]: 21.7 pg
MCHC [1]: 33.5%
MCV [1]: 64.7 fL
Mono [1]: 5.2%
Neu [1]: 13.4%
PT [1]: 11.7 s
Plat [1]: 116.9 x10_4/uL
RBC [1]: 643.4 x10_4/ul
Ret [1]: 9.9%
WBC [1]: 91 x10_2/uL
KIDNEY_L [1]: 1 g
KIDNEY_R [1]: 1 g
KIDNEY_TOTAL [1]: 2 g
LIVER [1]: 9.4 g
A/G [1]: 2.1
ALP [1]: 1450 IU/L
ALT [1]: 35.6 IU/L
AST [1]: 69.2 IU/L
BUN [1]: 11.8 mg/dL
CRE [1]: 0.5 mg/dL
Ca [1]: 10.6 mg/dL
Cl [1]: 101 meq/L
DBIL [1]: 0.014 mg/dL
GLC [1]: 189.2 mg/dL
IP [1]: 10.5 mg/dL
K [1]: 4.9 meq/L
LDH [1]: 105 IU/L
Na [1]: 139.4 meq/L
PL [1]: 124.4 mg/dL
RALB [1]: 3.6 g/dL
TBIL [1]: 1.3 mg/dL
TC [1]: 71.6 mg/dL
TG [1]: 46 mg/dL
TP [1]: 5.4 g/dL
gamma-GTP [1]: 1 IU/L
TERMINAL_BW [2]: 207.7 g
APTT [2]: 17.2 s
Bas [2]: 0%
Eos [2]: 1.4%
Fbg [2]: 214.8 mg/dL
Hb [2]: 13.9 g/dL
Ht [2]: 41.7%
Lym [2]: 78.2%
MCH [2]: 21.7 pg
MCHC [2]: 33.3%
MCV [2]: 65.1 fL
Mono [2]: 7.8%
Neu [2]: 13%
PT [2]: 11.9 s
Plat [2]: 119.6 x10_4/uL
RBC [2]: 641.8 x10_4/ul
Ret [2]: 11.7%
WBC [2]: 98.8 x10_2/uL
KIDNEY_L [2]: 1 g
KIDNEY_R [2]: 1 g
KIDNEY_TOTAL [2]: 2 g
LIVER [2]: 8.9 g
A/G [2]: 2.3
ALP [2]: 3422.2 IU/L
ALT [2]: 30.2 IU/L
AST [2]: 60.8 IU/L
BUN [2]: 8.8 mg/dL
CRE [2]: 0.6 mg/dL
Ca [2]: 10.9 mg/dL
Cl [2]: 101.8 meq/L
DBIL [2]: 0.066 mg/dL
GLC [2]: 189.6 mg/dL
IP [2]: 10.7 mg/dL
K [2]: 4.9 meq/L
LDH [2]: 97 IU/L
Na [2]: 141.2 meq/L
PL [2]: 135.4 mg/dL
RALB [2]: 3.8 g/dL
TBIL [2]: 1.5 mg/dL
TC [2]: 78.2 mg/dL
TG [2]: 27 mg/dL
TP [2]: 5.4 g/dL
gamma-GTP [2]: 1 IU/L
TERMINAL_BW [3]: 200.4 g
APTT [3]: 17.2 s
Bas [3]: 0%
Eos [3]: 1%
Fbg [3]: 205 mg/dL
Hb [3]: 14 g/dL
Ht [3]: 41.8%
Lym [3]: 81.8%
MCH [3]: 22.3 pg
MCHC [3]: 33.4%
MCV [3]: 66.8 fL
Mono [3]: 5.2%
Neu [3]: 12%
PT [3]: 11.8 s
Plat [3]: 121.4 x10_4/uL
RBC [3]: 626.2 x10_4/ul
Ret [3]: 8.8%
WBC [3]: 86.7 x10_2/uL
KIDNEY_L [3]: 0.9 g
KIDNEY_R [3]: 1 g
KIDNEY_TOTAL [3]: 1.9 g
LIVER [3]: 7.8 g
A/G [3]: 2.1
ALP [3]: 2047.2 IU/L
ALT [3]: 29 IU/L
AST [3]: 60.2 IU/L
BUN [3]: 9.6 mg/dL
CRE [3]: 0.6 mg/dL
Ca [3]: 10.3 mg/dL
Cl [3]: 103.6 meq/L
DBIL [3]: 0.028 mg/dL
GLC [3]: 183.8 mg/dL
IP [3]: 10 mg/dL
K [3]: 4.7 meq/L
LDH [3]: 94.4 IU/L
Na [3]: 143 meq/L
PL [3]: 126 mg/dL
RALB [3]: 3.7 g/dL
TBIL [3]: 1.2 mg/dL
TC [3]: 72.4 mg/dL
TG [3]: 39.4 mg/dL
TP [3]: 5.5 g/dL
gamma-GTP [3]: 1.2 IU/L
TERMINAL_BW [4]: 220.3 g
APTT [4]: 16.8 s
Bas [4]: 0%
Eos [4]: 1%
Fbg [4]: 208.6 mg/dL
Hb [4]: 13.6 g/dL
Ht [4]: 40.7%
Lym [4]: 78.6%
MCH [4]: 21.3 pg
MCHC [4]: 33.3%
MCV [4]: 63.9 fL
Mono [4]: 9.6%
Neu [4]: 11%
PT [4]: 12.2 s
Plat [4]: 120.5 x10_4/uL
RBC [4]: 637.8 x10_4/ul
Ret [4]: 8%
WBC [4]: 98.3 x10_2/uL
KIDNEY_L [4]: 1 g
KIDNEY_R [4]: 1 g
KIDNEY_TOTAL [4]: 2 g
LIVER [4]: 11.3 g
A/G [4]: 2.2
ALP [4]: 1529.6 IU/L
ALT [4]: 39 IU/L
AST [4]: 71.2 IU/L
BUN [4]: 19.8 mg/dL
CRE [4]: 0.6 mg/dL
Ca [4]: 11 mg/dL
Cl [4]: 104 meq/L
DBIL [4]: 0.006 mg/dL
GLC [4]: 187.2 mg/dL
IP [4]: 6.3 mg/dL
K [4]: 4.5 meq/L
LDH [4]: 123.4 IU/L
Na [4]: 140 meq/L
PL [4]: 132 mg/dL
RALB [4]: 3.8 g/dL
TBIL [4]: 1 mg/dL
TC [4]: 66.8 mg/dL
TG [4]: 111 mg/dL
TP [4]: 5.5 g/dL
gamma-GTP [4]: 1 IU/L
TERMINAL_BW [5]: 213.4 g
APTT [5]: 16.9 s
Bas [5]: 0%
Eos [5]: 1.2%
Fbg [5]: 207.6 mg/dL
Hb [5]: 13.6 g/dL
Ht [5]: 40.3%
Lym [5]: 74%
MCH [5]: 21.9 pg
MCHC [5]: 33.7%
MCV [5]: 65.1 fL
Mono [5]: 7.8%
Neu [5]: 16.8%
PT [5]: 11.3 s
Plat [5]: 130.3 x10_4/uL
RBC [5]: 620.2 x10_4/ul
Ret [5]: 12%
WBC [5]: 92.8 x10_2/uL
KIDNEY_L [5]: 1 g
KIDNEY_R [5]: 1 g
KIDNEY_TOTAL [5]: 2 g
LIVER [5]: 9.7 g
A/G [5]: 2.2
ALP [5]: 1482.6 IU/L
ALT [5]: 35.2 IU/L
AST [5]: 67.8 IU/L
BUN [5]: 12.2 mg/dL
CRE [5]: 0.5 mg/dL
Ca [5]: 10.6 mg/dL
Cl [5]: 100.2 meq/L
DBIL [5]: 0.04 mg/dL
GLC [5]: 195.2 mg/dL
IP [5]: 10.1 mg/dL
K [5]: 4.8 meq/L
LDH [5]: 99.8 IU/L
Na [5]: 140 meq/L
PL [5]: 133.6 mg/dL
RALB [5]: 3.7 g/dL
TBIL [5]: 1.4 mg/dL
TC [5]: 73.2 mg/dL
TG [5]: 42.2 mg/dL
TP [5]: 5.4 g/dL
gamma-GTP [5]: 1.2 IU/L
TERMINAL_BW [6]: 205.5 g
APTT [6]: 17.1 s
Bas [6]: 0%
Eos [6]: 1.2%
Fbg [6]: 215.4 mg/dL
Hb [6]: 14 g/dL
Ht [6]: 41.8%
Lym [6]: 68.2%
MCH [6]: 22.1 pg
MCHC [6]: 33.5%
MCV [6]: 66 fL
Mono [6]: 8%
Neu [6]: 23.4%
PT [6]: 11.8 s
Plat [6]: 126.4 x10_4/uL
RBC [6]: 633.4 x10_4/ul
Ret [6]: 14.3%
WBC [6]: 86.8 x10_2/uL
KIDNEY_L [6]: 0.9 g
KIDNEY_R [6]: 0.9 g
KIDNEY_TOTAL [6]: 1.9 g
LIVER [6]: 8.6 g
A/G [6]: 2.1
ALP [6]: 2888.2 IU/L
ALT [6]: 33.8 IU/L
AST [6]: 67.4 IU/L
BUN [6]: 10.6 mg/dL
CRE [6]: 0.6 mg/dL
Ca [6]: 10.5 mg/dL
Cl [6]: 100 meq/L
DBIL [6]: 0.046 mg/dL
GLC [6]: 189.8 mg/dL
IP [6]: 10.8 mg/dL
K [6]: 4.5 meq/L
LDH [6]: 114.6 IU/L
Na [6]: 141 meq/L
PL [6]: 138 mg/dL
RALB [6]: 3.7 g/dL
TBIL [6]: 1.5 mg/dL
TC [6]: 83 mg/dL
TG [6]: 21.2 mg/dL
TP [6]: 5.4 g/dL
gamma-GTP [6]: 0.8 IU/L
TERMINAL_BW [7]: 202.5 g
APTT [7]: 17.9 s
Bas [7]: 0%
Eos [7]: 1%
Fbg [7]: 213.4 mg/dL
Hb [7]: 13.6 g/dL
Ht [7]: 40.7%
Lym [7]: 79.6%
MCH [7]: 21.7 pg
MCHC [7]: 33.5%
MCV [7]: 64.9 fL
Mono [7]: 7.4%
Neu [7]: 12.2%
PT [7]: 11.8 s
Plat [7]: 120.8 x10_4/uL
RBC [7]: 627.8 x10_4/ul
Ret [7]: 8%
WBC [7]: 71.1 x10_2/uL
KIDNEY_L [7]: 0.9 g
KIDNEY_R [7]: 1 g
KIDNEY_TOTAL [7]: 1.9 g
LIVER [7]: 7.9 g
A/G [7]: 2.1
ALP [7]: 5387.2 IU/L
ALT [7]: 28 IU/L
AST [7]: 63.6 IU/L
BUN [7]: 11.2 mg/dL
CRE [7]: 0.6 mg/dL
Ca [7]: 10.3 mg/dL
Cl [7]: 100.8 meq/L
DBIL [7]: 0.032 mg/dL
GLC [7]: 177.6 mg/dL
IP [7]: 10 mg/dL
K [7]: 4.6 meq/L
LDH [7]: 92.8 IU/L
Na [7]: 141.6 meq/L
PL [7]: 129.8 mg/dL
RALB [7]: 3.7 g/dL
TBIL [7]: 1.5 mg/dL
TC [7]: 75.8 mg/dL
TG [7]: 30.2 mg/dL
TP [7]: 5.5 g/dL
gamma-GTP [7]: 1 IU/L
TERMINAL_BW [8]: 203.6 g
APTT [8]: 16.8 s
Bas [8]: 0%
Eos [8]: 1.6%
Fbg [8]: 193 mg/dL
Hb [8]: 14 g/dL
Ht [8]: 41.8%
Lym [8]: 77%
MCH [8]: 21.6 pg
MCHC [8]: 33.4%
MCV [8]: 64.6 fL
Mono [8]: 6.6%
Neu [8]: 15.2%
PT [8]: 13.1 s
Plat [8]: 133.3 x10_4/uL
RBC [8]: 647.6 x10_4/ul
Ret [8]: 10.7%
WBC [8]: 92.1 x10_2/uL
KIDNEY_L [8]: 1 g
KIDNEY_R [8]: 1 g
KIDNEY_TOTAL [8]: 1.9 g
LIVER [8]: 9 g
A/G [8]: 2.4
ALP [8]: 6419.2 IU/L
ALT [8]: 31.2 IU/L
AST [8]: 58 IU/L
BUN [8]: 12.6 mg/dL
CRE [8]: 0.7 mg/dL
Ca [8]: 10.7 mg/dL
Cl [8]: 99 meq/L
DBIL [8]: 0.056 mg/dL
GLC [8]: 180.6 mg/dL
IP [8]: 8.6 mg/dL
K [8]: 4.3 meq/L
LDH [8]: 104.4 IU/L
Na [8]: 140.2 meq/L
PL [8]: 110.8 mg/dL
RALB [8]: 3.9 g/dL
TBIL [8]: 1.9 mg/dL
TC [8]: 63.8 mg/dL
TG [8]: 31.6 mg/dL
TP [8]: 5.5 g/dL
gamma-GTP [8]: 0.8 IU/L
